Here are results for four molecules from paper PMC9413219 (Journal of Agricultural and Food Chemistry, 2022).

This data set deals with rumen inoculum from fistulated cows. The experiment in a line: In vitro batch culture incubation of a Senecio PA mixture with rumen inoculum. In kind it is in vitro ADME. The settings on record: incubation with rumen inoculum up to 20 h.
`C/C=C1/C[C@@]2(CO)O[C@@]2(C)C(=O)OCC2=CCN3CC[C@@H](OC1=O)[C@@H]23` [erucifoline]: the “degradation rate in rumen incubation (half-life ranking)” value (“degradation rate in rumen incubation” below) is “ranged in the middle”. For `C/C=C1/C[C@@H](C)[C@@](C)(O)C(=O)OCC2=CCN3CC[C@@H](OC1=O)[C@@H]23` [senecionine], the “degradation rate in rumen incubation” value is given as “fastest degradation”.

Consider `C=C1C/C(=C/C)C(=O)O[C@@H]2CCN3CC=C(COC(=O)[C@]1(C)O)[C@H]23` [seneciphylline], for which the “degradation rate in rumen incubation” value is listed as “fastest degradation”. For the molecule `C/C=C1/C[C@@H](C)[C@@](C)(O)C(=O)OC/C2=C/CN(C)CC[C@@H](OC1=O)C2=O` [senkirkine], the “degradation rate in rumen incubation” value is “slower degradation rates”.
